{"source": "patent US20200281209A1", "about": "“STABILIZED EMULSIONS” (Suncor Energy Inc., priority 2016, published 2020)", "assay": "Emulsification test after simulated long term storage at 50° C. (Testing Example 6)", "type": "physicochemical", "settings": "for re-emulsification compared with composition with no biocide: after storage at 50° C. for 32 and 70 days", "method": "Where required, solutions were preheated to aid in dissolution of surfactants. Once the various components had been dissolved into solution, final oil-in-water emulsion composition were blended using high shear mixing (Polytron, Brinkmann Instruments). For solutions containing monomeric surfactants, solutions were subjected to high shear mixing for 5 minutes, while solutions containing polymeric surfactants were subjected to high shear mixing for 15 minutes. Once blending was completed, samples were assessed for quality of emulsification and then placed at 50° C. for up to 70 days, with additional assessments occurring at different time points throughout the storage period. Quality of emulsification was assessed using the method described below. Samples were placed at 50° C. to accelerate storage stability testing, as 4 weeks at 50° C. is representative of 2 years at ambient temperature (CIPAC MT 46.3). The following method was used to evaluate the tested emulsions. The method was performed using a 100 mL graduated cylinder and a pipette (capable of measuring at least 1 mL). The oil-in-water emulsion compositions evaluated in this example were tested as follows: • 1. If ready-to-use spray oil solutions were under storage conditions (e.g., storage for two weeks at 54° C.), the solution was shaken to allow the contents to re-emulsify. • 2. A graduated cylinder was filled with 100 mL of an oil-in-water emulsion composition, and the amount was adjusted as necessary using a pipette. The test solution was allowed to sit for 15 minutes to permit the emulsion to break and to let the majority of the foam generated in step 1 (FIG. 1A) to disappear before moving to step 3. […] The foam should be allowed to settle before inverting cylinders. Even with inversion of cylinders (vs. shaking), some foaming can occur (FIG. 1(B)). • 3. A stopper was placed on the graduated cylinder and the graduated cylinder was inverted 10 times. It was important to invert and not shake the cylinder to prevent excess foaming. • 4. […] Rating were based on the following scale (1-10). […] Specifically, FIG. 2 is an example of an oil-in-water emulsion composition with a rating of 10 (best) at five minutes after inversion. The solution is a homogeneous, milky emulsion (left) and lacks an oil layer or creaming on the surface (right). […] The solution is a homogeneous, milky emulsion (left), but with creaming and some oil coalescence on surface (right). Finally, FIG. 4 is an example of an oil-in-water emulsion composition with a rating of 1 (worst) at five minutes after inversion. The solution has a cloudy appearance, lacks a homogeneous, milky emulsion (left), and has a layer of large, coalesced oil deposits at the surface of the solution (right). The figures were used in the examples described herein as a reference only.", "key": {"[1]": {"settings": "Base oil Group III, Alcohol ethoxylate/alkyl glyceride, 70 days of storage (50° C.), 10 = best, 1 = worst"}}}
{"compound": "O=C(O)c1ccccc1", "note": "[Benzoic acid, benzoic acid]", "values": [{"measurement": "Emulsion Rating (1-10)", "setting": "Base oil Group I, Alcohol ethoxylate/alkyl glyceride, 70 days of storage (50° C.)", "value": 6}, {"measurement": "Emulsion Rating (1-10)", "setting": "Base oil Group II, Alcohol ethoxylate/alkyl glyceride, 70 days of storage (50° C.)", "value": 7}, {"measurement": "Emulsion Rating (1-10)", "setting": "[1]", "value": 7}, {"measurement": "Emulsion Rating (1-10)", "setting": "Base oil Group III, Alkyl polysaccharide, 27 days of storage (50° C.)", "value": 8}, {"measurement": "Emulsion Rating (1-10)", "setting": "Base oil Group III, Block copolymer, 27 days of storage (50° C.)", "value": 8}, {"measurement": "Emulsion Rating (1-10)", "setting": "Base oil Group III, Polyoxyethylene amine quarternary/alkyl glyceride, 27 days of storage (50° C.)", "value": 4}, {"measurement": "Emulsion Rating (1-10)", "setting": "Base oil Group III, Random polymeric/Block copolymer, 64 days of storage (50° C.)", "value": 5}, {"measurement": "Emulsion Rating (1-10)", "setting": "Base oil Group IV, Alcohol ethoxylate/alkyl glyceride, 70 days of storage (50° C.)", "value": 6}, {"measurement": "re-emulsification compared with composition with no biocide", "value": "improved re-emulsification"}, {"measurement": "effect on re-emulsification, single surfactant", "setting": "alcohol ethoxylate, amine alkybenzenesulfonate (anionic), polyoxyethylene amine quarternary (cationic) or polyethylene glycol", "value": "no impact"}, {"measurement": "effect on re-emulsification, single surfactant", "setting": "alkyl glyceride, random polymeric, sorbitan monooleate, sorbitan fatty acid ester, or dodecyl phenol", "value": "negatively affected"}, {"measurement": "effect on re-emulsification, single surfactant", "setting": "block copolymer or alkyl polysaccharide surfactant", "value": "improved re-emulsification"}, {"measurement": "effect on re-emulsification, surfactant pairs", "setting": "dodecyl phenol + alcohol ethoxylate, alcohol ethoxylate + amine alkylbenzenesulfonate (anionic), sorbitan monooleate + polyoxyethylene (20) sorbitan monooleate", "value": "no impact"}, {"measurement": "re-emulsification compared with compositions without benzoic acid", "setting": "group I, group II, group III, and group IV (poly-alpha-olefins) base oils", "value": "improved re-emulsification"}, {"measurement": "effect on re-emulsification, surfactant pairs", "setting": "polyethylene glycol monostearate + alkyl glyceride, alkyl polysaccharide + alkyl glyceride", "value": "negatively affected"}, {"measurement": "effect on re-emulsification, surfactant pairs", "setting": "random polymeric + block copolymer (64 days), polyoxyethylene amine quarternary + alkyl glyceride (27 days), alcohol ethoxylate + alkyl glyceride (70 days), 50° C.", "value": "improved re-emulsification"}]}
{"compound": "COC(=O)c1ccc(O)cc1", "note": "[Methyl paraben, methyl paraben]", "values": [{"measurement": "Emulsion Rating (1-10)", "setting": "[1]", "value": 5}, {"measurement": "re-emulsification compared with composition with no biocide", "value": "improved re-emulsification"}]}
{"compound": "CCCOC(=O)c1ccc(O)cc1", "note": "[Propyl paraben, propyl paraben]", "values": [{"measurement": "Emulsion Rating (1-10)", "setting": "[1]", "value": 5}, {"measurement": "re-emulsification compared with composition with no biocide", "value": "improved re-emulsification"}]}
{"compound": "O=C([O-])c1ccccc1.[Na+]", "note": "[Sodium benzoate, sodium benzoate]", "values": [{"measurement": "Emulsion Rating (1-10)", "setting": "[1]", "value": 6}, {"measurement": "re-emulsification compared with composition with no biocide", "value": "improved re-emulsification"}]}
{"compound": "C/C=C/C=C/C(=O)O", "note": "[sorbic acid, reference compound]", "values": [{"measurement": "re-emulsification compared with composition with no biocide", "value": "comparable or worse emulsification quality"}]}
